According to patent publication US20230414596A1 (PRILENIA NEUROTHERAPEUTICS LTD., priority 2020, published 2023):
“And” between values parts separate entries of the source, which are not always exact repeats. Equal entries are not always repeated. Where two headings read alike, the source gives them in different places. Each block holds one molecule with its values, some of them ahead of it.

What was measured:
[1] = target: Sigma-2 receptor (S2R) (Homo sapiens (Human), UniProt Q5BJF2); assay: Sigma-2 receptor in-vitro binding assay
[2] = system: BDNF transcripts (BDNF I, IV, VI, IX) mRNA; details: whole brain, Rett mice
From the text: FIGS. 6A-6C, 7, 8, 9, 10: These figures display mRNA levels of BDNF transcripts measured in the brains of female heterozygous MeCP2 (Rett) mice. […] The relative quantity of the gene target is normalized to the geometric means of the relative quantity of the housekeeping genes APT5B, GAPDH and RPK12A. Relative level of the target gene was then normalized to the WT vehicle group. All data are represented as the mean±SEM. ANOVA followed by Tukey's multiple comparisons test.
Mice were euthanized via cervical dislocation and decapitated. From 10 mice/treatment group, whole brains were collected, weighed, and then frozen on dry ice. Samples were stored at −80° C. until analysis of brain-derived neurotrophic factor (BDNF).
Tissues (whole brain) were homogenized, and RNA extracted and quantified. An aliquote was reverse-transcribed into cDNA.
Up to three independent RT reactions were performed for each RNA sample. qPCR was performed using the primers detailed in Table 5 below.
Whole brain cDNA prepared from a pooled sample of WT vehicle treated animals was used as calibrator (calibrator is diluted same as sample cDNA) to normalized plate-to-plate variations. Each cDNA sample (diluted 1:10) was assayed in triplicates and the Ct values averaged.
Relative quantity of the PCR product (relative to the calibrator) was calculated as follows:
Relative Quantity of Target gene=(PCR EfficiencyTarget)^(Ct caltbrator-Ctsample)
Geometric mean=(relative quantity of housekeeping gene1*relative quantity of housekeeping gene2*relative quantity of housekeeping gene3)^(1/3)
Relative Quantity of Target gene Geometric mean of housekeeping genes
Relative level of target gene was then normalized to the WT vehicle group.

[3] = system: female MeCP2 heterozygous (Rett) mice; details: 3 mg/kg bid
Procedure: (§1) Dosing commenced when mice were ˜5.5 weeks of age and continued through the end of behavioral testing. Behavioral testing was done at 8 and 12 weeks of age.
Mice were placed in the PPI chambers (Med Associates) for a 5 min session of white noise (70 dB) habituation.
The inter-trial interval was variable with an average of 15 s (range from 10 to 20 s).

[4] = system: female MeCP2 heterozygous (Rett) mice; details: 30 mg/kg bid orally, 8 weeks of age
Procedure: Clasping is used to assess muscular strength in limb muscles. Hindlimb clasping is measured in mice held by the tail and gently lifted until the front paws just lift off the counter surface. The experimenter observes the legs and determines clasping or splaying of limbs. […] Data are mean±SEM, N-1 two-proportional tests.
as §1
Mice were held by the tail and gently lifted until the front paws just lift off the counter surface. The experimenter observed the legs and determined clasping or splaying of limbs. After testing, animals were placed back into the test or home cage. Percent clasping of the hindlimbs was determined and reported.

[5] = system: early HD patients; details: 45 mg bid
From the text: Change from baseline in UHDRS TMS gait balances week 26 (A) and Week 52(B) in early HD (baseline TFC 7-13) patients in the PRIDE-HD study.
Change from baseline in UHDRS TMS gait and balances scale at weeks 26 and 52 in early HD (baseline TFC 7-13).

[6] = system: cultured cortical neurons from the HD YAC128 mouse model; details: Smith-Dijak et al., 2019; cited from earlier work
[7] = system: B104 rat neuroblastoma cells; details: in-situ ELISA, Geva et al. 2016; cited from earlier work
[8] = system: B6.129P2-Mecp2tm2Bird/J (Rett-KO) male mice; details: 30 mg/kg bid
Procedure: The room temperature was maintained between 20 and 23° C. with a relative humidity maintained around 50%. Chow and water were provided ad libitum for the duration of the study.

[9] = system: Rett disease gene expression signature
[10] = system: B104 rat neuroblastoma cells; assay: BDNF release in-situ ELISA in B104 neuroblastoma cells; type: cell-based; details: 5 days
From the text: […]. Compound 4 alone had no effect on BDNF secretion—(1.5%). […]. Compound 4 alone had no effect on BDNF secretion (−1.5%). […].

[11] = system: female MeCP2 heterozygous (Rett) mice; details: for Recovery of overall gait features: female Rett mice, 30 mg/kg bid
Procedure: FIG. 1: Feature recovery as a measure of the therapeutic drug effect on Mecp2-KO Rett Syndrome model mice. This figure is intended to provide an explanation as to how the data is analyzed in FIGS. 4, 5 and 12.
Left: “the cloud graph”: Visualization of the control−disease−(disease+treatment) groups relationship in the optimal discrimination feature space.
The drug treatment effect can be represented as a combination of two components: one along the direction of the “recovery line” (the line connecting the centers of the control (WT) and disease (MECP2-KO) clouds, shown as a thick arrow to the left with diagonal lines on top), and the component orthogonal to (“pointing away” from) that direction shown as an arrow pointing up with parallel lines within. The relative length of the “recovery” arrow with respect to the control-disease distance can then be interpreted as the “recovery due to the drug”, whereas the relative length of the “other effect” (orthogonal with parallel lines inside) arrow represents feature changes that move the disease mice+treatment group away from the control group. The summary of this analysis can be effectively represented as a bar graph (right pane in FIG. 1A) which is typically referred to as the recovery signature.
Right: “the recovery signature” graph: The bar graph represents the summary of the recovery analysis. The overlap and discrimination probability sum up to 100%. The recovery ranges from […]. The lower the overlap, the better the quality of the disease model, and the higher the discrimination power between the WT and Rett mice groups. The “other behavioral effect” is in the same relative units (relative to the length of the distance between the WT and Rett mice groups).
The NeuroCube® system is a platform that employs computer vision to detect changes in gait geometry and gait dynamics in rodent models of neurological disorders, pain & neuropathies. This platform is unique for gait testing for the following reasons: • It is completely automated and thus removes any bias or subjectivity • This system captures both gait geometry and gait dynamics (stance, swing, propulsion, etc.)
Mice were placed in the NeuroCube for a 5 min test. The most dominant of the features collected that define the disease phenotype (symptom descriptors) was identified and ranked. Complex bioinformatic algorithms were employed to calculate the discrimination probability between the WT and the Rett HET MeCP2 mice and detect a test compound's ability to reverse the disease phenotype. Discriminations between mutant and wild type was calculated as well as the recovery of disease features in Rett HET MeCP2 mice treated with the test compound.
The output of NeuroCube is a set of dozens of behavioral features that are submitted for analysis with machine learning techniques used in bioinformatics. Many of these features are correlated (e.g. rearing counts and supported rearing counts). Therefore, PGI forms statistically independent combinations of the original features (further referred to as de-correlated features) that discriminate between the two groups more effectively.
Each de-correlated feature extracts information from the whole cluster of the original features, so the new feature space has lower dimensionality. Next, PGI applies a proprietary feature ranking algorithm to score each feature's discrimination power (ability to separate the two groups, e.g. control and disease).
Ranking is an important part of the analyses because it weighs each feature change by its relevance: if there is a significant change in some irrelevant feature measured for a particular phenotype, the low rank of this feature will automatically reduce the effect of such change in the analyses, so there is no need to resort to the conventional “feature selection” approach and discard information buried in the less informative features.

Sequence of Sigma-2 receptor (S2R) (Q5BJF2 whole entry, species assumed): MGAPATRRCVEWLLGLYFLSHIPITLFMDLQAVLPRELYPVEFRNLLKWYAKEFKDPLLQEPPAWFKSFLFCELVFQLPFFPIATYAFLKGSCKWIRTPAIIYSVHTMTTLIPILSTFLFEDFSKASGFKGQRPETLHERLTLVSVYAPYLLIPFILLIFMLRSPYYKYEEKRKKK

S1R fold selectivity (S2R/S1R) [1]: >35 fold
SMILES: CCCN1CC[C@@H](c2cccc(S(C)(=O)=O)c2)[C@@H](O)C1 [Compound 4]

SMILES: CCCN1CCC(c2cccc(S(C)(=O)=O)c2)CC1 [Pridopidine, 4-[3-(methylsulfonyl)phenyl]-1-propyl-piperidine]
Increase of BDNF IV mRNA levels ([2]; 3 mg/kg bid and 30 mg/kg bid): ~30%
Effect on mRNA expression of housekeeping genes ATP5B, GAPDH, RPL13A ([2]; 3 and 30 mg/kg bid): does not affect
Effect on BDNF I mRNA levels ([2]; 3 or 30 mg/kg bid): does not affect
Effect on BDNF VI mRNA levels ([2]; 3 or 30 mg/kg bid): does not affect
Rescue effect on mean startle response ([3]; 8 weeks of age): ~40%
Rescue effect on mean startle response ([3]; 12 weeks of age): ~50%
Percent clasping of the hindlimbs [4]: zero
Percent clasping of the hindlimbs ([4]; listed as pridopidine): 0%
UHDRS TMS gait and balance, Δ from placebo ([5]; HD1 (TFC 11-13), Week 26): −0.31
UHDRS TMS gait and balance, Δ from placebo ([5]; HD1 (TFC 11-13), Week 52): −0.94
UHDRS TMS gait and balance, Δ from placebo ([5]; HD2 (TFC 7-10), Week 26): −0.53
UHDRS TMS gait and balance, Δ from placebo ([5]; HD2 (TFC 7-10), Week 52): −0.18
UHDRS TMS gait and balance, Δ from placebo ([5]; early HD (TFC 7-13), Week 26): −0.48
UHDRS TMS gait and balance, Δ from placebo ([5]; early HD (TFC 7-13), Week 52): −0.41
Impaired homeostatic synaptic plasticity (HSP) [6]: restores impaired HSP
BDNF secretion in rat neuroblastoma cells [7]: dose dependent increase
Recovery of gait deficits ([8]; 6 weeks of age): 44%
Recovery of gait deficits ([8]; 7 weeks of age): 100%
NES (normalized enrichment score), genes downstream to BDNF ([9]; 30 mg/kg BID, BDNF-TrkB pathway genes): 1.752
NES (normalized enrichment score) ([9]; cortex, 3 mg/kg BID, geneset Prido Down / Rett Up): 1.356
NES (normalized enrichment score) ([9]; cortex, 3 mg/kg BID, geneset Prido Up / Rett Down): 1.477
NES (normalized enrichment score) ([9]; cortex, 30 mg/kg BID, geneset Prido Down / Rett Up): 2.081
NES (normalized enrichment score) ([9]; cortex, 30 mg/kg BID, geneset Prido Up / Rett Down): −2.631
Reversal of Rett gene expression pattern ([9]; striatum and cortex of Rett mice, GSEA): strongly reverses
NES (normalized enrichment score) ([9]; striatum, 3 mg/kg BID, geneset Down with Prido / Up in Rett): 2.18
NES (normalized enrichment score) ([9]; striatum, 3 mg/kg BID, geneset Up with Prido / Down in Rett): −2.50
NES (normalized enrichment score) ([9]; striatum, 30 mg/kg BID, geneset Up with Prido / Down in Rett): −1.77
Increase in BDNF release vs untreated control ([10]; pridopidine alone 0.001 μM): 13.6% and 13.5%
Increase in BDNF release vs untreated control ([10]; pridopidine alone 0.005 μM): 26%
Increase in BDNF release vs untreated control ([10]; pridopidine alone 0.01 μM ([…] in FIG. 17 legend)): 3.4%
% Recovery 3 mg/kg BID, Body Motion ([11]; 8 weeks, 3 mg/kg BID): 81%,
% Recovery 3 mg/kg BID, Gait ([11]; 8 weeks, 3 mg/kg BID): 38%,
% Recovery 30 mg/kg BID, Body Motion ([11]; 8 weeks, 30 mg/kg BID): 84%,
% Recovery 30 mg/kg BID, Gait ([11]; 8 weeks, 30 mg/kg BID): 71%,
% Recovery 3 mg/kg BID, Body Motion ([11]; 12 weeks, 3 mg/kg BID): 65%,
% Recovery 3 mg/kg BID, Gait ([11]; 12 weeks, 3 mg/kg BID): 60%,
% Recovery 3 mg/kg BID, Paw Positioning ([11]; 12 weeks, 3 mg/kg BID): 35%,
% Recovery 30 mg/kg BID, Body Motion ([11]; 12 weeks, 30 mg/kg BID): 59%,
% Recovery 30 mg/kg BID, Gait ([11]; 12 weeks, 30 mg/kg BID): 100%,
% Recovery 30 mg/kg BID, Paw Positioning ([11]; 12 weeks, 30 mg/kg BID): 52%,
Recovery of overall gait features ([11]; 8 weeks of age): 45%
Recovery of overall gait features ([11]; 12 weeks of age): 55%

SMILES: CCCN1CCC(O)(c2cccc(S(C)(=O)=O)c2)CC1 [Compound 1]
S1R fold selectivity (S2R/S1R) [1]: >270 fold
Increase in BDNF release vs untreated control ([10]; Compound 1 alone 1 μM): 12.5%
